Data published in US9133167B2, “Antibacterial quinoline derivatives” (JANSSEN PHARMACEUTICA NV, priority 2012, dated 2015).
Converted amounts (≈) assume the structure as drawn.

System: Staphylococcus aureus (ATCC29213)
Assay: Microtitre plate assay, IC90 for bacterial growth, Staphylococcus aureus strain
Assay type: cell-based
Conditions: 90% inhibitory concentration for bacterial growth, 24 hours at 37° C.
Protocol: D.2. In-Vitro Method for Testing Compounds for Anti-Bacterial Activity Against a Non-Mycobacterial Strain
Preparation of Bacterial Suspensions for Susceptibility Testing:
The bacteria used in this study were grown overnight in flasks containing 100 ml Mueller-Hinton Broth (Becton Dickinson—cat. no. 275730) in sterile de-ionized water, with shaking, at 37° C. Stocks (0.5 ml/tube) were stored at −70° C. until use. Bacteria titrations were performed in microtiter plates to detect the TCID50, in which TCID50 represents the dilution that gives rise to bacterial growth in 50% of inoculated cultures. In general, an inoculum level of approximately 100 TCID50 was used for susceptibility testing.
Anti Bacterial Susceptibility Testing: IC90 Determination
Flat-bottom, sterile 96-well plastic microtiter plates were filled with 180 μl of sterile deionized water, supplemented with 0.25% BSA. Subsequently, stock solutions (7.8× final test concentration) of compounds were added in 45 μl volumes in column 2 Serial five-fold dilutions (45 μl in 180 μl) were made directly in the microtiter plates from column 2 to reach column 11. Untreated control samples with (column 1) and without (column 12) inoculum were included in each microtiter plate. Depending on the bacteria type, approximately 10 to 60 CFU per well of bacteria inoculum (100 TCID50), in a volume of 100 μl in 2.8× Mueller-Hinton broth medium, was added to the rows A to H, except column 12. The same volume of broth medium without inoculum was added to column 12 in row A to H. The cultures were incubated at 37° C. for 24 hours under a normal atmosphere (incubator with open air valve and continuous ventilation). At the end of incubation, one day after inoculation, the bacterial growth was quantitated fluorometrically. Therefore resazurin (0.6 mg/ml) was added in a volume of 20 μl to all wells 3 hours after inoculation, and the plates were re-incubated overnight. A change in colour from blue to pink indicated the growth of bacteria. The fluorescence was read in a computer-controlled fluorometer (Cytofluor Biosearch) at an excitation wavelength of 530 nm and an emission wavelength of 590 nm. The % growth inhibition achieved by the compounds was calculated according to standard methods. The IC90 (expressed in μg/ml) was defined as the 90% inhibitory concentration for bacterial growth. The results are shown in Table 7 for an assay using a Staphylococcus aureus strain.

IC90 (μg/ml) STA B29213 [µg/mL] | Structure (SMILES)
>32.54 | COc1nc2ccc(-c3ccncc3)cc2cc1C(c1ccccc1)C1(O)CCN(Cc2ccccc2)CC1 (racemic) [Compound 31]
>28.69 | CSc1nc2ccccc2cc1C(c1ccccc1)C1(O)CCN(Cc2ccccc2)CC1 (racemic) [Compound 32]
14.96 (≈ 31.6 µM) | COc1nc2ccc(Cl)cc2cc1C(c1ccccc1)C1(O)CCN(Cc2ccccc2)CC1 (racemic) [Compound 33]
>29.57 | COc1ccc2nc(OC)c(C(c3ccccc3)C3(O)CCN(Cc4ccccc4)CC3)cc2c1 (racemic) [Compound 34]
>31.84 | COc1nc2ccc(-c3ccco3)cc2cc1C(c1ccccc1)C1(O)CCN(Cc2ccccc2)CC1 (racemic) [Compound 37]
>29.57 | CSc1nc2ccc(C)cc2cc1C(c1ccccc1)C1(O)CCN(Cc2ccccc2)CC1 (racemic) [Compound 41]
20.60 (≈ 39.8 µM) | COc1nc2cc(Br)ccc2cc1C(c1ccccc1)C1(O)CCN(Cc2ccccc2)CC1 (racemic) [Compound 43]
>32.65 | COc1nc2cccc(Br)c2cc1C(c1ccccc1)C1(O)CCN(Cc2ccccc2)CC1 (racemic) [Compound 44]
>43.79 | COc1nc2ccc(-c3cccnc3)cc2cc1C(c1ccc(Cl)cc1)C1(O)CCN(Cc2ccccc2)CC1.O=C(O)/C=C/C(=O)O (racemic) [Compound 50]
>42.92 | COc1nc2ccc(-c3ccccc3)cc2cc1C(c1ccc(Cl)cc1)C1(O)CCN(Cc2ccccc2)CC1.O=C(O)/C=C/C(=O)O (racemic) [Compound 51]
19.77 | COc1nc2ccccc2cc1C(c1ccc(Cl)cc1)C1(O)CCN(Cc2ccccc2)CC1.O=C(O)/C=C/C(=O)O (racemic) [Compound 52]
>43.02 | COc1nc2ccc(-c3ccco3)cc2cc1C(c1ccc(Cl)cc1)C1(O)CCN(Cc2ccccc2)CC1.O=C(O)/C=C/C(=O)O (racemic) [Compound 64]
>49.51 | COc1nc2ccc(Br)cc2cc1C(c1ccc(Cl)c(C(F)(F)F)c1)C1(O)CCN(Cc2ccccc2)CC1.O=C(O)/C=C/C(=O)O (racemic) [Compound 66]
>43.98 | COc1nc2ccc(Br)cc2cc1C(c1ccccc1Cl)C1(O)CCN(Cc2ccccc2)CC1.O=C(O)/C=C/C(=O)O (racemic) [Compound 67]
>44.98 | COc1nc2ccc(-c3ccccc3)cc2cc1C(c1ccc(Cl)cc1)C1(O)CCN(Cc2ccc(C)cc2)CC1.O=C(O)/C=C/C(=O)O (racemic) [Compound 69]
>44.71 | COc1nc2ccc(-c3ccco3)cc2cc1C(c1ccc(Cl)cc1)C1(O)CCN(Cc2ccc(C)cc2)CC1.O=C(O)/C=C/C(=O)O (racemic) [Compound 70]
>44.46 | COc1nc2ccc(-c3cccnc3)cc2cc1C(c1ccc(Cl)cc1)C1(O)CCN(Cc2ccc(C)cc2)CC1.O=C(O)/C=C/C(=O)O (racemic) [Compound 71]
33.82 | COc1nc2ccc(Br)cc2cc1C(c1ccc(F)cc1)C1(O)CCN(Cc2ccccc2)CC1.O=C(O)/C=C/C(=O)O (racemic) [Compound 72]
>33.79 | COc1nc2ccc(Br)cc2cc1C(c1ccccc1F)C1(O)CCN(Cc2ccccc2)CC1 (racemic) [Compound 83]
>33.79 | COc1nc2ccc(Br)cc2cc1C(c1cccc(F)c1)C1(O)CCN(Cc2ccccc2)CC1 (racemic) [Compound 84]
>44.39 | COc1nc2ccc(-c3ccccc3)cc2cc1C(c1ccc(Cl)cc1)C1(O)CCN(CCc2ccccc2)CC1.O=C(O)/C=C/C(=O)O (racemic) [Compound 89]
32.65 (≈ 63.1 µM) | COc1nc2ccc(Br)cc2cc1C(c1ccccc1)C1(O)CCN(Cc2ccccc2)CC1 (stereo not drawn) [Compound 29]
>29.62 | COc1nc2ccc(Br)cc2cc1C(c1ccccc1)C1(O)CCN(C(C)C)CC1 (stereo not drawn) [Compound 30]

IC90 (μg/ml) STA B29213 [µg/mL] | Structure (SMILES)
>43.03 | COc1nc2ccc(Br)cc2cc1C(c1ccc(Cl)cc1)C1(O)CCN(Cc2ccccc2)CC1.O=C(O)/C=C/C(=O)O (stereo not drawn) [Compound 35]
32.85 | COc1nc2ccc(Br)cc2cc1C(c1ccc(Cl)cc1)C1(O)CCN(Cc2ccccc2)CC1.O=C(O)C(=O)O (stereo not drawn) [Compound 36]
>33.54 | COc1nc2ccc(Br)cc2cc1C(c1ccccc1)C1(O)CCN(Cc2cccc(C)c2)CC1 (stereo not drawn) [Compound 38]
33.54 (≈ 63.1 µM) | COc1nc2ccc(Br)cc2cc1C(c1ccc(C)cc1)C1(O)CCN(Cc2ccccc2)CC1 (stereo not drawn) [Compound 39]
13.75 (≈ 25.1 µM) | COc1ccc(C(c2cc3cc(Br)ccc3nc2OC)C2(O)CCN(Cc3ccccc3)CC2)cc1 (stereo not drawn) [Compound 40]
19.23 | COc1nc2ccc(Br)cc2cc1C(c1ccc(Cl)cc1)C1(O)CCNCC1.O=C(O)/C=C/C(=O)O (stereo not drawn) [Compound 45]
>35.71 | COc1nc2ccc(Br)cc2cc1C(c1ccc(Cl)cc1)C1(O)CCN(CCc2ccccc2)CC1 (stereo not drawn) [Compound 46]
>35.71 | COc1nc2ccc(Br)cc2cc1C(c1ccc(Cl)c(C)c1)C1(O)CCN(Cc2ccccc2)CC1 (stereo not drawn) [Compound 48]
>44.06 | COc1nc2ccc(Br)cc2cc1C(c1ccc(Cl)c(C)c1)C1(O)CCN(Cc2ccccc2)CC1.O=C(O)/C=C/C(=O)O (stereo not drawn) [Compound 49]
>44.89 | COc1nc2ccc(Br)cc2cc1C(c1ccc(Cl)c(F)c1)C1(O)CCN(Cc2ccccc2)CC1.O=C(O)/C=C/C(=O)O (stereo not drawn) [Compound 53]
>43.45 | COc1nc2ccc(Br)cc2cc1C(c1cc2ccccc2o1)C1(O)CCN(Cc2ccccc2)CC1.O=C(O)/C=C/C(=O)O (stereo not drawn) [Compound 54]
>43.09 | COc1nc2ccc(Br)cc2cc1C(c1ccc(F)c(C)c1)C1(O)CCN(Cc2ccccc2)CC1.O=C(O)/C=C/C(=O)O (stereo not drawn) [Compound 55]
>44.60 | COc1nc2ccc(Br)cc2cc1C(c1ccc2ccccc2c1)C1(O)CCN(Cc2ccccc2)CC1.O=C(O)/C=C/C(=O)O (stereo not drawn) [Compound 56]
20.32 | COc1nc2ccc(Br)cc2cc1C(c1cccnc1)C1(O)CCN(Cc2ccccc2)CC1.O=C(O)/C=C/C(=O)O (stereo not drawn) [Compound 57]
17.45 (≈ 31.6 µM) | COc1nc2ccc(Br)cc2cc1C(c1cccc(Cl)c1)C1(O)CCN(Cc2ccccc2)CC1 (stereo not drawn) [Compound 59]
>43.03 | COc1nc2ccc(Br)cc2cc1C(c1cccc(Cl)c1)C1(O)CCN(Cc2ccccc2)CC1.O=C(O)/C=C/C(=O)O (stereo not drawn) [Compound 60]
>44.79 | COc1nc2ccc(Br)cc2cc1C(c1ccc(Cl)cc1)C1(O)CCN(Cc2ccccc2C)CC1.O=C(O)/C=C/C(=O)O (stereo not drawn) [Compound 63]
>46.15 | COc1nc2ccc(Br)cc2cc1C(c1ccc(Cl)c(Cl)c1)C1(O)CCN(Cc2ccccc2)CC1.O=C(O)/C=C/C(=O)O (stereo not drawn) [Compound 65]
>40.66 | COc1nc2ccc(Br)cc2cc1C(c1ccco1)C1(O)CCN(Cc2ccccc2)CC1.O=C(O)/C=C/C(=O)O (stereo not drawn) [Compound 68]
>41.02 | C=Cc1ccc2nc(OC)c(C(c3ccc(Cl)cc3)C3(O)CCN(Cc4ccc(C)cc4)CC3)cc2c1.O=C(O)/C=C/C(=O)O (stereo not drawn) [Compound 73]
6.95 (≈ 12.6 µM) | O=c1[nH]c2ccc(Br)cc2cc1C(c1ccc(Cl)cc1)C1(O)CCN(CCc2ccccc2)CC1 (stereo not drawn) [Compound 74]
34.89 | CN(C)c1nc2ccc(Br)cc2cc1C(c1ccc(Cl)cc1)C1(O)CCN(Cc2ccccc2)CC1.O=C(O)/C=C/C(=O)O (stereo not drawn) [Compound 75]

Same assay, conditions: 90% inhibitory concentration for bacterial growth, 24 hours at 37° C., read-out: IC90 (μg/ml) STA B29213

IC90 [µg/mL] | Structure (SMILES)
> 32.5 | COc1nc2ccc(-c3ccccc3)cc2cc1C(c1ccccc1)C1(O)CCN(Cc2ccccc2)CC1 (stereo not drawn) [Compound 4]
8.42 (≈ 15.8 µM) | COc1nc2ccc(Br)cc2cc1C(c1ccccc1)C1(O)CCN(CCc2ccccc2)CC1 (stereo not drawn) [Compound 5]
> 34.8 | COc1nc2ccc(Br)cc2cc1[C@@H](c1ccc(Cl)cc1)C1(O)CCN(Cc2ccccc2)CC1 [Compound 7]
> 34.8 | COc1nc2ccc(Br)cc2cc1[C@H](c1ccc(Cl)cc1)C1(O)CCN(Cc2ccccc2)CC1 [Compound 8]
11.6 (≈ 25.1 µM) | COc1nc2ccc(Br)cc2cc1C(c1ccc(Cl)cc1)C1(O)CCNCC1 (stereo not drawn) [Compound 14]
11.3 (≈ 17.7 µM) | COc1nc2ccc(Br)cc2cc1C(c1ccc(Cl)cc1)C1(O)CCN(C2CCN(Cc3ccccc3)CC2)CC1 (stereo not drawn) [Compound 15]
